Like-named read-outs stand apart in the source and are kept apart here.
Experiments:
SlCAT2 [1] = test: [3H]Arg uptake in proteoliposomes reconstituted with recombinant SlCAT2; type: biochemical, S. lycopersicum; settings: for effect of intraliposomal cations on [3H]Arg uptake: cation in internal compartment at about vacuolar concentration, K+ and Na+ versus no osmolytes, extent equal to isoosmolar sucrose (osmotic effect); for inhibition of [3H]Arg uptake by external divalent cations / inhibition of [3H]Arg uptake by external monovalent cations: extraliposomal cation at about cytosolic concentration; for inhibition of [3H]Arg uptake by external divalent cations: with respect to sucrose (1.2 mM) used as control of osmolality; for effect of external K+ salts on [3H]Arg uptake: salt in extraliposomal compartment, KCl compared to K-gluconate; for inhibition of [3H]Arg uptake by external monovalent cations: with respect to 40 mM sucrose used as control of osmolality
Protocol: The desalted SlCAT2 was reconstituted by removing the detergent from mixed micelles containing detergent, protein, and phospholipids by incubation with Amberlite XAD-4 in a batch-wise procedure, as previously described. The composition of the initial mixture used for reconstitution (except when differently indicated) was 400 µL of the purified protein (6 µg protein in 0.1% DDM), 80 µL of 10 % TX-100, 120 µL of 10% egg yolk phospholipids in the form of sonicated liposomes prepared as previously described, 15 mM ATP, and 10 mM Tris Hepes pH 7.5 (except where differently indicated) in a final volume of 700 µL. After vortexing, this mixture was incubated with 0.5 g Amberlite XAD-4 under rotatory stirring (1200 rpm) at 23 °C for 40 min in a batchwise procedure as previously pointed out.
Five-hundred-and-fifty microliters of proteoliposomes were passed through a Sephadex G-75 column (0.7 cm diameter × 15 cm height) preequilibrated with 10 mM Tris Hepes pH 7.5. From these columns, 550 µL of proteoliposomes were collected and divided into aliquots (samples) of 100 µL. Transport was started by adding 100 µM of [^3H]Arg to the proteoliposome samples. The pH gradient experiments were performed reconstituting protein in liposome with 10 mM Tris Hepes pH 5.5. After incubation with Amberlite XAD 4 resin, 550 µL of proteoliposomes were passed through a Sephadex G-75 column preequilibrated with 0.5 mM Tris Hepes pH 5.5.
The changes in external/internal osmolality were performed by adding in the extraliposomal/intraliposomal compartment appropriate concentrations of sucrose as indicated in the figure legend.
Transport reaction was stopped by adding 5 mM Pyridoxal Phosphate (PLP); according to the stop inhibitor method, the same inhibitor was added at time zero to control samples (blank). The initial rate was measured in 10 min, i.e., in the linear range of time courses as previously described. The PLP insensitive radioactivity associated with the control samples (blank) was less than 30% with respect to the PLP-sensitive arginine transport.
The experimental values were corrected by subtracting the respective controls. Specific activity was calculated and expressed as nmol/mg at a given time of measurement or as nmol/(mg × min) in the case of initial rate measurement. For calculation of initial rate, transport was measured in 10 min, i.e., within the initial linear part of the uptake. Grafit 5.0.13 software (Erithacus Software, West Sussex, UK) was used to derive IC50 values in inhibition assays and to measure transport rate by first-order rate equation and by a single exponential decay with offset.

SlCAT2 [2] = test: [3H]Arg efflux from preloaded proteoliposomes reconstituted with SlCAT2; type: biochemical, S. lycopersicum; settings: 0.45 mM Mg2+ in the extraliposomal compartment; proteoliposomes preloaded with 100 µM [3H]Arg
Protocol: Figure 9 Efflux from proteoliposomes reconstituted with SlCAT2. SlCAT2 was purified and reconstituted in proteoliposomes as described in Section 4.4. Arginine efflux was measured at the indicated time, as described in Section 4.5. Internal residual radioactivity was measured as percent with respect to control (time 0), in the absence (open circle) or in the presence (closed circle) of 0.45 mM Mg^2+ in the extraliposomal compartment. Data are plotted using the single exponential equation with offset as described in Section 4.5. Results are the means ± SD from three experiments.
For efflux measurements, proteoliposomes containing 15 mM ATP were preloaded by incubation with 100 µM [^3H]Arg (1 µCi/mL) for 90 min [64]. In both uptake and efflux, transport was stopped by passing 100 µL of each sample through a Sephadex G-75 column (0.6 cm diameter × 8 cm height) in order to separate the external from the internal radioactivity. Samples were eluted with 1 mL 50 mM NaCl and collected in 4 mL of scintillation mixture, vortexed and counted.
The experimental values were corrected by subtracting the respective controls. Specific activity was calculated and expressed as nmol/mg at a given time of measurement or as nmol/(mg × min) in the case of initial rate measurement. For calculation of initial rate, transport was measured in 10 min, i.e., within the initial linear part of the uptake. […]

[3] = cation in extraliposomal compartment (NaCl, K-gluconate, NH4Cl, MgCl2), 100 μM [3H]Arg, 20 min, proteoliposomes containing 200 mM sucrose and 15 mM ATP, pH 7.5, read-out: IC50 for inhibition of [3H]Arg uptake by external cations

For `Nc1ncnc2c1ncn2[C@@H]1O[C@H](COP(=O)(O)OP(=O)([O-])OP(=O)([O-])O)[C@@H](O)[C@H]1O.[Na+].[Na+]` [ATP], the “effect of extraliposomal ATP on [3H]Arg uptake” value (SlCAT2 [1]; ATP (Na+)2 salt added externally, partially due to Na+ and osmolality, 200 mM sucrose and 15 mM ATP inside, pH 7.5, 20 min) was “inhibited”.

For `CC(C)CCC[C@@H](C)[C@H]1CC[C@H]2[C@@H]3CC=C4C[C@@H](OC(=O)CCC(=O)O)CC[C@]4(C)[C@H]3CC[C@]12C` [CHS, Cholesteryl hemisuccinate, reference compound], the “stimulation of [3H]Arg uptake by CHS in the proteoliposomal membrane” value (SlCAT2 [1]; 1 mg of CHS in 1 mL proteoliposomes, corresponding to 10% of total lipid composition, 20 min, pH 7.5) was “up to 30%”.

For `[Ca+2].[Cl-].[Cl-]` [Ca^2+], the “effect of intraliposomal cations on [3H]Arg uptake” value (shortened to “effect of intraliposomal cations”) (SlCAT2 [1]; 15 mM ATP, pH 7.5, 20 min) was “did not exert any significant effect” and the “inhibition of [3H]Arg uptake by external divalent cations” value (SlCAT2 [1]; 20 min, pH 7.5) was “did not exert a significant effect”.

In the case of `O=C([O-])[C@H](O)[C@@H](O)[C@H](O)[C@H](O)CO.[K+]` [K-gluconate], the “effect of external K+ salts on [3H]Arg uptake” value (SlCAT2 [1]; 20 min, pH 7.5) is reported as “no difference between the two K^+ salts”.

`[Cl-].[K+]` [KCl] was tested, and the “effect of external K+ salts on [3H]Arg uptake” value (SlCAT2 [1]; 20 min, pH 7.5) was “inhibited”.

With `[K+]` [K^+] the IC50 (SlCAT2 [1]; [3]) was 11.3 ± 1.2 mM, the “effect of intraliposomal cations” value (SlCAT2 [1]; 15 mM ATP, pH 7.5, 20 min) was “activation” and the “inhibition of [3H]Arg uptake by external monovalent cations” value (SlCAT2 [1]; 20 min, pH 7.5) was ~ 40%.

`[Cl-].[Cl-].[Mg+2]` [Mg^2+] was tested, and the “effect of external Mg2+ on [3H]Arg efflux” value (SlCAT2 [2]) was “no, or only a slight, effect”, the “inhibition of [3H]Arg uptake by intraliposomal Mg2+ in the absence of internal ATP” value (SlCAT2 [1]; Mg2+ in internal compartment, 200 mM sucrose, no intraliposomal ATP, 20 min) was “virtually disappeared” and the IC50 (SlCAT2 [1]; Mg2+ in internal compartment, with 200 mM sucrose and 15 mM intraliposomal ATP, pH 7.5, 20 min, read-out: IC50 for inhibition of [3H]Arg uptake by intraliposomal Mg2+) was 23 ± 9.9 mM. For the same molecule, the IC50 (SlCAT2 [1]; [3]) was 0.42 ± 0.18 mM, the “effect of intraliposomal cations” value (SlCAT2 [1]; 15 mM ATP, pH 7.5, 20 min) was “strong inhibitory effect” and the “inhibition of [3H]Arg uptake by external divalent cations” value (SlCAT2 [1]; 20 min, pH 7.5) was 33%.

With `Cl.N` [NH4^+] the IC50 (SlCAT2 [1]; [3]) was 5.7 ± 1.49 mM, the “effect of intraliposomal cations” value (SlCAT2 [1]; 15 mM ATP, pH 7.5, 20 min) was “did not exert any significant effect” and the “inhibition of [3H]Arg uptake by external monovalent cations” value (SlCAT2 [1]; 20 min, pH 7.5) was ~ 40%.

In the case of `[Cl-].[Na+]` [Na^+], the IC50 (SlCAT2 [1]; [3]) is reported as 10.9 ± 0.8 mM, the “effect of intraliposomal cations” value (SlCAT2 [1]; 15 mM ATP, pH 7.5, 20 min) is reported as “activation” and the “inhibition of [3H]Arg uptake by external monovalent cations” value (SlCAT2 [1]; 20 min, pH 7.5) is reported as ~ 40%.

For `OC[C@H]1O[C@@](CO)(O[C@H]2O[C@H](CO)[C@@H](O)[C@H](O)[C@H]2O)[C@@H](O)[C@@H]1O` [sucrose], the “effect of 1.2 mM external sucrose on transport activity” value (SlCAT2 [1]; 1.2 mM sucrose external, with respect to control without sucrose) was “no difference of activity”, the “effect of 40 mM external sucrose on transport activity” value (SlCAT2 [1]; 40 mM sucrose external, with respect to the condition without sucrose) was “caused a reduction of transport activity” and the “[3H]Arg uptake as percent of the control with external sucrose” value (SlCAT2 [1]; 50 mM sucrose in external compartment, 200 mM sucrose and 15 mM ATP inside, pH 7.5, 10 min) was “about 45%”. The “transport rate of [3H]Arg uptake with external sucrose” value (SlCAT2 [1]; 50 mM sucrose in external compartment, control without external sucrose 0.93 ± 0.2, 10 min, pH 7.5) was 0.51 ± 0.18 nmol/mg/min and the “change of [3H]Arg uptake with intraliposomal sucrose” value (SlCAT2 [1]; intraliposomal osmolality 50 to 175 mOsmol, plateau up to 225 mOsmol, 15 mM ATP, pH 7.5, 10 min) was “increased approximately three times”.
